Assay results published in PubChem BioAssay AID206 (DTP/NCI, 2004).
Several values for one entry are separate records, joined by “and”; a condition that tells them apart may be missing. Equal values may be shown once. Records with an inconclusive call do not appear.

Tested on: nude mice, HT29 intrarenal xenograft, tumor weight T/C
Assay: NCI In Vivo Anticancer Drug Screen. Data for tumor model HT29;CX-1 Human Adenocarcinoma (MER+) (intrarenal inoculation) in NU/NU Swiss (nude) mice
Settings: endpoint: mean tumor weight change, higher = larger tumour
How it was run: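 Mice with transplanted tumors are dosed with compound while controls get vehicle only. Survival or tumor burden is then assessed per group, and the treated value is expressed relative to control.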

[1] = dose: 225.0 mg/kg/injection, schedule: Q04DX004 (sc), vehicle: suspension in saline
[2] = dose: 450.0 mg/kg/injection, schedule: Q04DX004 (sc), vehicle: suspension in saline
[3] = dose: 900.0 mg/kg/injection, schedule: Q04DX004 (sc), vehicle: suspension in saline
[4] = dose: 300.0 mg/kg/injection, schedule: Q04DX004 (sc), vehicle: saline with Tween-80
[5] = dose: 600.0 mg/kg/injection, schedule: Q04DX004 (sc), vehicle: saline with Tween-80
[6] = dose: 150.0 mg/kg/injection, schedule: Q04DX004 (sc), vehicle: Klucel (hydroxypropylcellulose) (HPC)
[7] = dose: 300.0 mg/kg/injection, schedule: Q04DX004 (sc), vehicle: Klucel (hydroxypropylcellulose) (HPC)
[8] = dose: 600.0 mg/kg/injection, schedule: Q04DX004 (sc), vehicle: Klucel (hydroxypropylcellulose) (HPC)

SMILES: OCCO
- T/C (dose: 4.0 % in 0.5 ml injection vol, schedule: Q04DX004 (sc), vehicle: other): 85 % of control
- T/C (dose: 8.0 % in 0.5 ml injection vol, schedule: Q04DX004 (sc), vehicle: other): 46 % of control
- T/C (dose: 16.0 % in 0.5 ml injection vol, schedule: Q04DX004 (sc), vehicle: other): 26 % of control

SMILES: COC1OC(CO)C(O)C(NC(=O)N(C)N=O)C1O (stereo not drawn)
- T/C [1]: 104 % of control
- T/C [2]: 95 % of control
- T/C [3]: 33 % of control

SMILES: NC(=S)N/N=C/c1ccc(OC(=O)COc2ccc(Cl)cc2)cn1
- T/C [4]: 103 % of control
- T/C [5]: 150 % of control

SMILES: CN(C)C=O
- T/C (dose: 400.0 mg/kg/injection, schedule: Q01DX010 (sc), vehicle: saline): 186 % of control
- T/C (dose: 3200.0 mg/kg/injection, schedule: Q01DX010 (sc), vehicle: saline): 48 % of control and 49 % of control

SMILES: O=C[C@@H](CO)O[C@H](C=O)n1cnc2c(=O)[nH]cnc21
- T/C (dose: 225.0 mg/kg/injection, schedule: Q04DX004 (sc), vehicle: saline): 76 % of control
- T/C (dose: 450.0 mg/kg/injection, schedule: Q04DX004 (sc), vehicle: saline): 86 % of control
- T/C (dose: 900.0 mg/kg/injection, schedule: Q04DX004 (sc), vehicle: saline): 93 % of control

SMILES: C/C=C/c1cc2c(c(=O)o1)C(=O)[C@@H](O)[C@H](C)O2
- T/C (dose: 50.0 mg/kg/injection, schedule: Q04DX004 (sc), vehicle: saline with Tween-80): 107 % of control
- T/C (dose: 200.0 mg/kg/injection, schedule: Q04DX004 (sc), vehicle: saline with Tween-80): 79 % of control

SMILES: COc1ccc2nc3cc(Cl)ccc3c(NCCNCCNCCNc3c4ccc(Cl)cc4nc4ccc(OC)cc34)c2c1
- T/C (dose: 100.0 mg/kg/injection, schedule: Q01DX010 (sc), vehicle: saline with Tween-80): 116 % of control
- T/C (dose: 400.0 mg/kg/injection, schedule: Q01DX010 (sc), vehicle: saline with Tween-80): 124 % of control
- T/C (dose: 800.0 mg/kg/injection, schedule: Q01DX010 (sc), vehicle: saline with Tween-80): 93 % of control

SMILES: O=C(O)C1(C(=O)O)CCC1.[NH2-].[NH2-].[Pt+2]
- T/C (dose: 25.0 mg/kg/injection, schedule: Q01DX010 (sc), vehicle: dextrose): 66 % of control and 91 % of control
- T/C (dose: 50.0 mg/kg/injection, schedule: Q01DX010 (sc), vehicle: dextrose): 17 % of control

SMILES: ClCc1ccc2ccccc2n1
- T/C (dose: 75.0 mg/kg/injection, schedule: Q04DX004 (sc), vehicle: saline with Tween-80): 82 % of control
- T/C (dose: 150.0 mg/kg/injection, schedule: Q04DX004 (sc), vehicle: saline with Tween-80): 88 % of control
- T/C [4]: 86 % of control
- T/C [5]: 53 % of control

SMILES: COC(=O)C12OCC34C(CC5C(C)=CC(=O)C(O)C5(C)C3C(O)C1O)OC(=O)C(OC(=O)CC(C)C)C24 (stereo not drawn)
- T/C (dose: 1.5 mg/kg/injection, schedule: Q04DX004 (sc), vehicle: saline + alcohol): 59 % of control
- T/C (dose: 3.0 mg/kg/injection, schedule: Q04DX004 (sc), vehicle: saline + alcohol): 76 % of control

SMILES: Nc1nc(=S)c2[nH]cnc2[nH]1
- T/C (dose: 0.39 mg/kg/injection, schedule: Q01DX010 (sc), vehicle: Klucel (hydroxypropylcellulose) (HPC)): 102 % of control
- T/C (dose: 0.78 mg/kg/injection, schedule: Q01DX010 (sc), vehicle: Klucel (hydroxypropylcellulose) (HPC)): 91 % of control

SMILES: O=C([CH-]C(=O)C(F)(F)F)c1ccccc1.O=C([CH-]C(=O)C(F)(F)F)c1ccccc1.O=C([CH-]C(=O)C(F)(F)F)c1ccccc1.O=C([CH-]C(=O)C(F)(F)F)c1ccccc1.[Eu+3].c1ccncc1
- T/C (dose: 800.0 mg/kg/injection, schedule: Q01DX010 (sc), vehicle: Klucel (hydroxypropylcellulose) (HPC)): 10 % of control and 20 % of control (2×)

SMILES: C=C(C(=O)O)C(N)C(=O)O (stereo not drawn)
- T/C [1]: 114 % of control
- T/C [2]: 64 % of control
- T/C [3]: 109 % of control

SMILES: CSc1ncc2ncn(C3OC(CO)C(O)C3O)c2n1 (stereo not drawn)
- T/C (dose: 75.0 mg/kg/injection, schedule: Q04DX004 (sc), vehicle: Klucel (hydroxypropylcellulose) (HPC)): 95 % of control
- T/C [6]: 90 % of control
- T/C [7]: 185 % of control
- T/C [8]: 182 % of control

SMILES: Cc1ccc(S(=O)(=O)N/N=C/C(Br)=C(/Br)C(=O)O)cc1
- T/C [6]: 47 % of control
- T/C [7]: 55 % of control
- T/C [8]: 22 % of control

SMILES: O=S(=O)(c1ccccc1)N1CN2CCN(C2)C1
- T/C (dose: 225.0 mg/kg/injection, schedule: Q04DX004 (sc), vehicle: saline with Tween-80): 58 % of control
- T/C (dose: 450.0 mg/kg/injection, schedule: Q04DX004 (sc), vehicle: saline with Tween-80): 75 % of control
- T/C (dose: 900.0 mg/kg/injection, schedule: Q04DX004 (sc), vehicle: saline with Tween-80): 90 % of control

SMILES: COc1cccc2c1C(=O)c1c(O)c3c(c(O)c1C2=O)CC(O)(C(=O)CO)CC3OC1CC(N)C(O)C(C)O1 (stereo not drawn)
- T/C (dose: 48.0 mg/kg/injection, schedule: Q01DX010 (sc), vehicle: saline): 90 % of control

SMILES: CC1CC(C)CC(C)C(O)/C(C#N)=C/C=C/CC(C2CCCC2C(=O)O)OC(=O)CC(O)C(C)C1 (stereo not drawn)
- T/C (dose: 1.5 mg/kg/injection, schedule: Q04DX004 (sc), vehicle: Klucel (hydroxypropylcellulose) (HPC)): 87 % of control
- T/C (dose: 3.0 mg/kg/injection, schedule: Q04DX004 (sc), vehicle: Klucel (hydroxypropylcellulose) (HPC)): 76 % of control
- T/C (dose: 6.0 mg/kg/injection, schedule: Q04DX004 (sc), vehicle: Klucel (hydroxypropylcellulose) (HPC)): 40 % of control
- T/C (dose: 12.0 mg/kg/injection, schedule: Q04DX004 (sc), vehicle: Klucel (hydroxypropylcellulose) (HPC)): 69 % of control

SMILES: CCCCCCCC(=O)OCC(=O)[C@]1(O)Cc2c(O)c3c(c(O)c2[C@@H](OC2CC(N)C(O)C(C)O2)C1)C(=O)c1c(OC)cccc1C3=O (stereo partly drawn)
- T/C (dose: 2.0 mg/kg/injection, schedule: Q04DX004 (sc), vehicle: suspension in saline): 90 % of control
- T/C (dose: 4.0 mg/kg/injection, schedule: Q01DX010 (sc), vehicle: suspension in saline): 222 % of control
- T/C (dose: 4.0 mg/kg/injection, schedule: Q04DX004 (sc), vehicle: suspension in saline): 50 % of control
- T/C (dose: 5.0 mg/kg/injection, schedule: Q04DX004 (sc), vehicle: suspension in saline): 106 % of control
- T/C (dose: 8.0 mg/kg/injection, schedule: Q01DX010 (sc), vehicle: suspension in saline): 67 % of control
- T/C (dose: 8.0 mg/kg/injection, schedule: Q04DX004 (sc), vehicle: suspension in saline): 42 % of control
- T/C (dose: 10.0 mg/kg/injection, schedule: Q04DX004 (sc), vehicle: suspension in saline): 29 % of control
- T/C (dose: 16.0 mg/kg/injection, schedule: Q04DX004 (sc), vehicle: suspension in saline): 33 % of control
- T/C (dose: 20.0 mg/kg/injection, schedule: Q04DX004 (sc), vehicle: suspension in saline): 42 % of control

SMILES: COc1ccc(-c2cc(C(=O)Nc3cc(C(F)(F)F)cc(C(F)(F)F)c3)c3ccccc3n2)cc1
- T/C (dose: 300.0 mg/kg/injection, schedule: Q04DX004 (ip), vehicle: DMSO): 115 % of control
- T/C (dose: 600.0 mg/kg/injection, schedule: Q04DX004 (ip), vehicle: DMSO): 50 % of control

SMILES: NS(=O)(=O)OCCCCCCCOS(N)(=O)=O
- T/C (dose: 37.5 mg/kg/injection, schedule: Q04DX004 (ip), vehicle: saline with Tween-80): 74 % of control
- T/C (dose: 75.0 mg/kg/injection, schedule: Q04DX004 (ip), vehicle: saline with Tween-80): 102 % of control
- T/C (dose: 150.0 mg/kg/injection, schedule: Q04DX004 (ip), vehicle: saline with Tween-80): 35 % of control

SMILES: CC1=CC2C(O)(CC(CO)=CC3C4C(C)(C)C4(OC(=O)c4ccccc4)C(OC(=O)c4ccccc4)C(C)C32O)C1=O (stereo not drawn)
- T/C (dose: 5.0 mg/kg/injection, schedule: Q04DX004 (sc), vehicle: saline with Tween-80): 43 % of control

SMILES: CCCCCCCCSC1=C(Cl)C(=O)C(OC)=C(OC)C1=O
- T/C (dose: 18.0 mg/kg/injection, schedule: Q04DX004 (sc), vehicle: saline with Tween-80): 96 % of control
- T/C (dose: 36.0 mg/kg/injection, schedule: Q04DX004 (sc), vehicle: saline with Tween-80): 82 % of control
- T/C (dose: 72.0 mg/kg/injection, schedule: Q04DX004 (sc), vehicle: saline with Tween-80): 118 % of control
- T/C (dose: 144.0 mg/kg/injection, schedule: Q04DX004 (sc), vehicle: saline with Tween-80): 59 % of control

SMILES: CC(C)[C@]12O[C@H]1[C@@H]1O[C@]13[C@]1(O[C@H]1C[C@H]1C4=C(C(=O)OC4)[C@@H](O)C[C@@]13C)[C@@H]2O
- T/C (dose: 0.1 mg/kg/injection, schedule: Q01DX010 (sc), vehicle: saline + alcohol): 63 % of control
- T/C (dose: 0.2 mg/kg/injection, schedule: Q01DX010 (sc), vehicle: saline + alcohol): 77 % of control
